Experiment: Solubility of drug in PBS
Type: physicochemical
Conditions: phosphate buffered saline (PBS), pH 6.5, aqueous buffer
Experimental: At a pH of greater than about 5, the enteric polymer is aqueous soluble. By “aqueous soluble” is meant that when the polymer is administered alone at a solids concentration of 0.2 mg/mL to a phosphate buffered saline (PBS) solution consisting of an aqueous solution of 20 mM sodium phosphate (Na2HPO4), 47 mM potassium phosphate (KH2PO4), 87 mM NaCl, and 0.2 mM KCl, adjusted to pH 6.5 with NaOH, the polymer has a solubility of greater than 0.1 mg/mL.
The Tm of Drug 1 is 10° C., and the Tg was determined by DSC analysis to be −16° C.

- solubility: < 0.1 µg/mL
Compound: CCc1cc(Oc2cccc(N(Cc3cccc(OC(F)(F)C(F)F)c3)C[C@@H](O)C(F)(F)F)c2)ccc1Cl [Drug 1, (2R)-3-[[3-(4-chloro-3-ethylphenoxy)phenyl][[3-(1,1,2,2-tetrafluoroethoxy)phenyl]methyl]amino]-1,1,1-trifluoro-2-propanol]
